Data set [1] has as its system MC38 tumour. Description: MC38 syngeneic tumour model, tumour growth and survival. The class given is in vivo, mice. Particulars: E9 24 mg/kg BID compared to dasatinib 30 mg/kg QD. The procedure: Error bars SEM. X-axes: Days. Statistical significance was calculated with two-way ANOVA analysis including Tukey's multiple comparison analysis. ***p<0.001; (B) Body weight kinetics of the mice in (A). Y-axis: Mean body weight change (%).
Y-axis=Mean tumour volume (mm3). […] X-axis=Days. […] X-axis: Days.
Left hand column=compound treatment group; and right hand column=vehicle treatment group. Y axes=Tumour volume (mm3); X axes=Days after inoculation.
FIG. 29: depicts the effect of compound E9 and anti PD-1 mAB (alone or in combination) on in vivo tumour growth (mean+/−SEM) in a MC38 syngeneic tumour model. (A) Y axes=Tumour volume (mm3); X axes=Days after start of therapy. Vehicle+anti PD-1 mAB (squares), vehicle+mIgG1e ctr (circles), E9+anti PD-1 mAB (inverted triangles), and E9+mIgG1e ctr (triangles). (B) Median overall survival.) Y axes=Probability of survival (%); X axes=Days after start of therapy. Vehicle+anti PD-1 mAB (grey/dashed), vehicle+mIgG1e ctr (black/solid), E9+anti PD-1 mAB (grey/solid), and E9+mIgG1e ctr (black/dashed). […] (C) E9 25 mg/kg BID; (D) aPD-1 2.5 mg/kg; (E) E9 50 mg/kg BID+aPD-1 2.5 mg/kg; and (F) vehicle.

For data set [2] the following is noted: in vivo, po, 30 mg/kg.
The conditions of data set [3]: female, C57BL/6, mouse, in vivo, 7 days.
Data set [4] deals with NFKB activity in reporter PANC-1 cells. The data set can be described thus: NFKB luciferase reporter activity in PANC-1 cells. The class given is cell-based. Particulars: Homo sapiens; PANC-1 reporter cells, +10 ng/ml rHuTNF for 8 h. Here is the method: Luciferase activity was normalized to PANC-1 cells treated with rHuTNF without inhibitor (DMSO only). Y-axis=NFKB activity (%). […] Whole cell lysates were analyzed in a Meso Scale Discovery (MSD) assay with anti-HDAC4 capture and anti-pHDAC4 detection antibodies. HDAC4 phosphorylation was normalized to untreated PANC-1 cells (DMSO only). Y-axis=HDAC4 phosphorylation (%). X-axis=Compound concentration (nM).
FIG. 28: depicts: (A) and (B) effect of compound E9 on NFKB activity. […] Luciferase activity was normalised to cells treated with rHuTNF without inhibitor (DMSO only). Y-axis=NFKB activity (%). X-axis=compound concentration (nM); Bar “A” viability without compound and without TNF; bar “B” viability without compound and with 10 ng/ml TNF; and (C) Effect of compound E9 on HDAC4 phosphorylation. […] Whole cell lysates were analysed in a Meso Scale Discovery (MSD) assay with anti-HDAC4 capture and anti-pHDAC4 detection antibodies. HDAC4 phosphorylation was normalized to untreated PANC-1 cells (DMSO only). Y-axis=HDAC4 phosphorylation (%). X-axis=Compound concentration (nM).
On the technique in general: In a reporter assay the amount or activity of a reporter protein is the signal.

Data set [5] relates to EMT6 breast cancer tumours. The data set can be described thus: EMT6 immune-excluded (cold) tumour syngeneic mouse model. Format: in vivo, BALB/c mice. More on the design: key to Tukey's multiple comparisons test, Significance summary: ns = not significant. Particulars: for Tukey's multiple comparisons test, Significance summary: EMT6 model; for tumour growth inhibition (TGI): EMT6.

The test system of data set [6] is MC38 murine tumour cell line. The data set can be described thus: TNF-sensitised cell viability assay (CellTiter-Glo). To be noted: Mus musculus.
In data set [7] the test system is HCT116 cells. Described as above. To be noted: Homo sapiens, HCT-116, read-out: HCT116 IC50 (at 10 ng/ml rHuTNF).

Where “and” joins values, the source holds several entries; their conditions need not be identical. Equal entries are not always repeated. Some results are limits rather than exact numbers.

As usually defined, the EC50 is the midpoint of the concentration-response curve.

In the case of `Cc1nc(Nc2ncc(C(=O)Nc3c(CF)csc3Cl)s2)cc(N2CCN(C)CC2)n1` [Compound E9, N-(2-chloro-4-(fluoromethyl)thiophen-3-yl)-2-((2-methyl-6-(4-methylpiperazin-1-yl)pyrimidin-4-yl)amino)thiazole-5-carboxamide], in data set [1], the tumour growth inhibition result was “superior and more uniform tumour growth inhibition”. Besides, in data set [2] (male, CD1, mouse), the “% AUCextrap, Free” value amounted to 0.49%; the “% AUCextrap, Total” value came out at 0.49%; the “AUCinf (nM*h), Free” value was 239.92 nM·h; the “AUClast (nM*h), Free” value was found to be 238.75 nM·h. In data set [2] (mouse), the “Rsq, Free” value turned out to be 0.84 and the “Rsq, Total” value was 0.84. Besides, in data set [3], the “DLT@BID dosing” value is “n.d. @50 mg/kg”, the “DLT@QD dosing” value is reported as “n.d. @50 mg/kg”, the “HRD in vivo @BID” value is reported as 50 mg/kg and the “HRD in vivo @QD” value was 50 mg/kg. This molecule also returned an EC50 in data set [4] of 0.405 µM. The “Tukey's multiple comparisons test, Significance summary” value in data set [5] (E9 25 mg/kg bid vs. E9 […] bid) is “ns”. In addition, the “Tukey's multiple comparisons test, Significance summary” value in data set [5] (E9 25 mg/kg qd vs. E9 5 mg/kg bid) is listed as “ns”. Further, in data set [5] (5 mg/kg BID), the “tumour growth inhibition (TGI)” value was 24% and 25%. In data set [5] (25 mg/kg BID), the “tumour growth inhibition (TGI)” value was 37%. Also, the “tumour growth inhibition (TGI)” value in data set [5] (25 mg/kg QD) came out at 9%. Besides, the “Tukey's multiple comparisons test, Significance summary” value in data set [5] (Vehicle vs. E9 25 mg/kg qd) was “ns”. Moreover, the IC50 in data set [6] (MC-38, read-out: MC38 IC50 (at 100 ng/mL rMuTNF)) is under 0.1 µM. The EC50 in data set [6] (MC-38, read-out: mean EC50 of sensitising MC38 tumour cells to TNF-mediated killing) was under 0.1 µM. In data set [7], the IC50 was under 0.1 µM.

The values above are taken from patent US20230348453A1, “HALOGENATED-HETEROARYL AND OTHER HETEROCYCLIC KINASE INHIBITORS, AND USES THEREOF” (iOmx Therapeutics AG, priority 2020, published 2023).
